Source: patent US20070020704A1, “Diaryl ureas with kinase inhibiting activity” (priority 2003, published 2007)

Columns and labels:
[1] = tested on: Raf Pathway phospho-ERK, Breast; experiment: Cellular assay Raf pathway phospho-ERK, breast (Bio-Plex phospho-ERK1/2 immunoassay); type: cell-based; settings: Homo sapiens, inhibition of target phosphorylation in whole cells by 50%
Experimental: A 96-well phospho-ERK (PERK) immunoassay, using laser flow cytometry platform has been established to measure inhibition of basal pERK in cell lines. MDA-MB-231 cells were plated at 50,000 cells per well in 96-well microtitre plates in complete growth media. For effects of test compounds on basal pERK1/2 inhibition, the next day after plating, MDA-MB-231 cells were transferred to DMEM with 0.1% BSA and incubated with test compounds diluted 1:3 to a final concentration of 3 μM to 12 nM in 0.1% DMSO. Cells were incubated with test compounds for 2 h, washed, and lysed in Bio-Plex whole cell lysis buffer A. Samples are diluted with buffer B 1:1 (v/v) and directly transferred to assay plate or frozen at −80 C degrees until processed. 50 μL of diluted MDA-MB-231 cell lysates were incubated with about 2000 of 5 micron Bio-Plex beads conjugated with an anti-ERK1/2 antibody overnight on a shaker at room temperature. The next day, biotinylated phospho-ERK1/2 sandwich immunoassay was performed, beads are washed 3 times during each incubation and then 50 μL of PE-strepavidin was used as a developing reagent. The relative fluorescence units of pERK1/2 were detected by counting 25 beads with Bio-Plex flow cell (probe) at high sensitivity. The IC50 was calculated by taking untreated cells as maximum and no cells (beads only) as background.

[2] = tested on: Raf Pathway phospho-ERK, Melanoma; experiment: Cellular assay Raf pathway phospho-ERK, melanoma; type: cell-based
c-KIT phosphor-AKT = experiment: Cellular assay c-KIT pathway phosphor-AKT; type: cell-based
[3] = tested on: MIA PaCa-2 pancreatic (mutant k-Ras) xenograft; experiment: Tumor treatment, MIA PaCa-2 xenograft model; type: in vivo, CB17 SCID female mice; settings: p.o., qd×14
Experimental: (§1) All treatments were administered p.o. on a qd×14 schedule. […] Similarly, the growth of MIA PaCa-2 tumors was inhibited 44%, 66%, and 73% at dosages of 10, 30, and 100 mg/kg/dose, respectively. The growth of NCI-H460 tumors was inhibited 27% and 56% at dosages of 10 and 30 mg/kg/dose of this Raf kinase inhibitor. The SK-OV-3 model was slightly more sensitive, generating 45%-81% tumor growth inhibitions at dosages of 3 to 100 mg/kg/dose.
HCT 116, SK-OV-3, and MIA PaCa-2 stock tumors were maintained as serial s.c. passages of fragments in CD-1 Nu/Nu female mice (HCT 116 and SK-OV-3) or CB17 SCID female mice (MIA-PaCa-2). Treatments were administered orally and were initiated against established tumors. Tumor dimensions were measured via calipers 2-3 times per week and were converted into tumor mass by the formula […], where L and W refer to the largest and smallest dimensions, respectively.

[4] = tested on: NCI-H460 lung (mutant k-Ras) xenograft; experiment: Tumor treatment, NCI-H460 xenograft model; type: in vivo; settings: p.o., qd×14
Experimental: as §1

phospho-ERK = experiment: Immunohistochemical staining of tumor sections with anti-pERK antibodies (melanoma biopsies pre- and post-treatment); type: in vivo, human; settings: subject having melanoma, 600 mg BID; post- vs pre-treatment biopsy
Source text: 3. Immunohistochemical Staining of Tumor Sections with Anti-pERK Antibodies
Activated Raf kinase phosphorylates and activates MEK (mitogen-activated protein kinase kinase), which in turn phosphorylates and activates ERK (extracellular signal-regulated kinase), which translocates to the nucleus and modifies gene expression. This pathway is often aberrantly activated in tumor cells due to the presence of activated ras, mutant BRAF, or elevation of growth factor receptors. A semi-quantitative immunohistochemical method was developed to detect phosphorylated ERK (pERK) in human tumor biopsies as a patient selection biomarker for determining whether a patient will be responsive to a compound of the present invention, and also to assess its efficacy. The antibody used was a polyclonal antibody (rabbit) that detects the phosphorylation status of p44 and p42 (phospho-p44/42 MAPK (Thr202/Tyr204)) MAP kinases (ERK1 and ERK2). The procedure was accomplished as follows:
1. Tumor samples were obtained from patients. Samples were embedded in paraffin and sectioned.
2. […]
20. Each tissue section was assessed using the Bioquant TCW98 image analysis system. […]
A subject having a melanoma was treated with a compound in accordance with the present invention, and then a biopsy sample was assessed using the assay described above. […]

melanoma = experiment: Response of a subject having melanoma (PET and CT scans); type: in vivo, human; settings: 600 mg BID
Experimental: A subject having a melanoma was treated with a compound in accordance with the present invention, and then a biopsy sample was assessed using the assay described above.
The subject was then administered a 600 mg BID dose of the compound.
A response to the compound was observed by comparing PET scans taken at baseline vs. the second cycle. […] This response corresponds with a decrease in the percent of nuclei expressing pERK in the post-treatment biopsy. […] The compound utilized was N-[4-chloro-3-(trifluoromethyl)phenyl]-N′-{4-[2-N-methylcarbamoyl-4-pyridyloxy]phenyl}urea.

HER2 Receptor = HER2 Receptor (Homo sapiens, UniProt P04626); settings: cellular assay, HER 1 & 2 Pathway
Sequence of HER2 Receptor (P04626 23-1255): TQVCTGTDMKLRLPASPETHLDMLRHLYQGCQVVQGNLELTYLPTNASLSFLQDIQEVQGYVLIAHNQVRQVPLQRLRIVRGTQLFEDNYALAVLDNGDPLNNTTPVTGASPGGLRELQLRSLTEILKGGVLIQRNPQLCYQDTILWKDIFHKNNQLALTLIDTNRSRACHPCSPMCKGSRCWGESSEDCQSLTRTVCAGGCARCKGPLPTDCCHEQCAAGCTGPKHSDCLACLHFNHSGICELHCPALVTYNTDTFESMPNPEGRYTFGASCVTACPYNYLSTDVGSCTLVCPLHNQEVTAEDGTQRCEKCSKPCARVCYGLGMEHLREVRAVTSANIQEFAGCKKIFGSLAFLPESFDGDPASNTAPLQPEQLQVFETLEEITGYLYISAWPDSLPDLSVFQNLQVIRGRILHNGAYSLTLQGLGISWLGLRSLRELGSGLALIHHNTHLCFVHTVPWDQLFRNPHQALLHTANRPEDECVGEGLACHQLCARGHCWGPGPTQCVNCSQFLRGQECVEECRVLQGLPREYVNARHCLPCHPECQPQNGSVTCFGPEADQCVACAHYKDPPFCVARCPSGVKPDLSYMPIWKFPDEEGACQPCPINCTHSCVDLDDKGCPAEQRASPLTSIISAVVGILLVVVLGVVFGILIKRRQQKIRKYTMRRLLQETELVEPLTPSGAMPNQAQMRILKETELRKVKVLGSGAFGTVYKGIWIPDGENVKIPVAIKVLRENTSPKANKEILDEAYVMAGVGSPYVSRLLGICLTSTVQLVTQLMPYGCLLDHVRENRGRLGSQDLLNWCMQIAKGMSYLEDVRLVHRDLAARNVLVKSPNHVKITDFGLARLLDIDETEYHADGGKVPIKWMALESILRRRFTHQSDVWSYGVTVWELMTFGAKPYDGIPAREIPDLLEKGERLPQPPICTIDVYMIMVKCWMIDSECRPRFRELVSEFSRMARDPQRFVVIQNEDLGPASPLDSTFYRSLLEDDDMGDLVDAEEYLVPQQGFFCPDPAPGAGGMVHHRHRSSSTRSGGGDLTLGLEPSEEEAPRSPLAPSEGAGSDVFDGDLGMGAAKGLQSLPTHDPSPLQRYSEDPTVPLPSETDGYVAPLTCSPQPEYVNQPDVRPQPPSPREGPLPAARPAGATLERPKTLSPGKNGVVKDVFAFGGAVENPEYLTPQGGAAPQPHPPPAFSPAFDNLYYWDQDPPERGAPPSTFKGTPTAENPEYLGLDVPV

melting point [°C] | SMILES | further results
187 to 188 | CNC(=O)c1cc(Oc2ccc(NC(=O)Nc3cc(C(F)(F)F)ccc3OC)c(Cl)c2)ccn1 [Entry 17, ({2-chloro-4-[2-(N-methylcarbamoyl)(4-pyridyloxy)]phenyl}amino)-N-[2-methoxy-5-(trifluoromethyl)phenyl]carboxamide] | –
214 to 216 | CNC(=O)c1cc(Oc2ccc(NC(=O)Nc3cc(C(F)(F)F)ccc3OC)cc2Cl)ccn1 [Entry 20, ({3-chloro-4-[2-(N-methylcarbamoyl)(4-pyridyloxy)]phenyl}amino)-N-[2-methoxy-5-(trifluoromethyl)phenyl]carboxamide] | –
147 to 151 | CNC(=O)c1cc(Oc2ccc(NC(=O)Nc3ccc(Cl)c(C(F)(F)F)c3)c(Cl)c2)ccn1 [Entry 49, {4-[3-chloro-4-({[4-chloro-3-(trifluoromethyl)phenyl]amino}carbonylamino)phenoxy](2-pyridyl)}-N-methylcarboxamide] | –
140 to 144 | CNC(=O)c1cc(Oc2ccc(NC(=O)Nc3cc(C(F)(F)F)c(Cl)cc3OC)cc2)ccn1 [Entry 95, N-[4-chloro-2-methoxy-5-(trifluoromethyl)phenyl]({4-[2-(N-methylcarbamoyl)(4-pyridyloxy)]phenyl}amino)carboxamide] | –
244 to 245 | CNC(=O)c1cc(Oc2ccc(NC(=O)Nc3cc(C(F)(F)F)c(Cl)cc3OC)c(Cl)c2)ccn1 [Entry 96, N-[4-chloro-2-methoxy-5-(trifluoromethyl)phenyl]({2-chloro-4-[2-(N-methylcarbamoyl)(4-pyridyloxy)]phenyl}amino)carboxamide] | –
220 to 221 | CNC(=O)c1cc(Oc2ccc(NC(=O)Nc3cc(C(F)(F)F)c(Cl)cc3OC)cc2Cl)ccn1 [Entry 97, N-[4-chloro-2-methoxy-5-(trifluoromethyl)phenyl]({3-chloro-4-[2-(N-methylcarbamoyl)(4-pyridyloxy)]phenyl}amino)carboxamide] | –
180 to 181 | CCNC(=O)c1cc(Oc2ccc(NC(=O)Nc3cc(C(F)(F)F)c(Cl)cc3OC)cc2)ccn1 [Entry 99, N-[4-chloro-2-methoxy-5-(trifluoromethyl)phenyl]({4-[2-(N-ethylcarbamoyl)(4-pyridyloxy)]phenyl}amino)carboxamide] | –

Further lines, the molecule ahead of its results:

SMILES | melting point [°C] | further results
COc1ccc(C(F)(F)F)cc1NC(=O)Nc1ccc(Oc2ccnc(C(N)=O)c2)cc1 [Entry 14, 4-[4-({N-[2-methoxy-5-(trifluoromethyl)phenyl]carbamoyl}amino)phenoxy]pyridine-2-carboxamide] | 114 to 117 | –
CNC(=O)c1cc(Oc2ccc(NC(=O)Nc3cc(C(F)(F)F)ccc3OC)c(C)c2)ccn1 [Entry 16, {4-[4-({N-[2-methoxy-5-(trifluoromethyl)phenyl]carbamoyl}amino)-3-methylphenoxy](2-pyridyl)}-N-methylcarboxamide] | 210 to 213 | –
CCNC(=O)c1cc(Oc2ccc(NC(=O)Nc3cc(C(F)(F)F)ccc3OC)cc2)ccn1 [Entry 19, ({4-[2-(N-ethylcarbamoyl)(4-pyridyloxy)]phenyl}amino)-N-[2-methoxy-5-(trifluoromethyl)phenyl]carboxamide] | 194 to 196 | –
CNC(=O)c1cc(Sc2ccc(NC(=O)Nc3cc(C(F)(F)F)ccc3OC)cc2)ccn1 [Entry 27, N-[2-methoxy-5-(trifluoromethyl)phenyl]({4-[2-(N-methylcarbamoyl)(4-pyridylthio)]phenyl}amino)carboxamide] | 218 to 219 | –
CCNC(=O)c1cc(Oc2ccc(NC(=O)Nc3ccc(Cl)c(C(F)(F)F)c3)cc2)ccn1 [Entry 51, N-[4-chloro-3-(trifluoromethyl)phenyl]({4-[2-(N-ethylcarbamoyl)(4-pyridyloxy)]phenyl}amino)carboxamide] | 187 to 189 | –
CNC(=O)c1cc(Oc2ccc(NC(=O)Nc3ccc(Br)c(C(F)(F)F)c3)cc2Cl)ccn1 [Entry 87, {4-[4-({[4-bromo-3-(trifluoromethyl)phenyl]amino}carbonylamino)-2-chlorophenoxy](2-pyridyl)}-N-methylcarboxamide] | 217 to 219 | –
CCNC(=O)c1cc(Oc2ccc(NC(=O)Nc3ccc(Br)c(C(F)(F)F)c3)cc2)ccn1 [Entry 88, N-[4-bromo-3-(trifluoromethyl)phenyl]({4-[2-(N-ethylcarbamoyl)(4-pyridyloxy)]phenyl}amino)carboxamide] | 183 to 184 | –
CNC(=O)c1cc(Oc2ccc(NC(=O)Nc3ccc(Cl)c(C(F)(F)F)c3)cc2)ccn1 [N-[4-chloro-3-(trifluoromethyl)phenyl]-N′-{4-[2-N-methylcarbamoyl-4-pyridyloxy]phenyl}urea] | – | IC50 [1]: 0.08 µM; IC50 [2]: 0.88 µM; IC50 (c-KIT phosphor-AKT): 0.402 µM; growth of MIA PaCa-2 tumors inhibited ([3]; 10 mg/kg/dose): 44%; growth of MIA PaCa-2 tumors inhibited ([3]; 30 mg/kg/dose): 66%; growth of MIA PaCa-2 tumors inhibited ([3]; 100 mg/kg/dose): 73%; growth of NCI-H460 tumors inhibited ([4]; 10 mg/kg/dose): 27%; growth of NCI-H460 tumors inhibited ([4]; 30 mg/kg/dose): 56%; percent of nuclei expressing pERK in the post-treatment biopsy (phospho-ERK): decrease; PET scan metabolic activity after treatment (melanoma; baseline vs. second cycle): completely silent; CT scan measurements by RECIST (melanoma; through cycle 6 of treatment): stable disease; IC50 (nM) (HER2 Receptor): INACTIVE
